Results on 4 compounds are retold here after article PMC9692677, “Virtual Cocrystal Screening of Adefovir Dipivoxyl: Identification of New Solid Forms with Improved Dissolution and Permeation Profiles” (Pharmaceutics, 2022).

Values after ≈ are worked out from the molar mass of the structure shown. Values joined by “and” are separate entries in the source; they are usually repeats but may differ in a detail not shown here. Equal entries are not always repeated. Where two headings read alike, the source gives them in different places.

Broadly, the solubility is the dissolved amount per volume that the medium holds. By pKa is commonly meant the pH at which an ionisable group is half protonated. The low end stands for a group that gives up its proton readily, the high end for a group that holds its proton tightly.

What all share (format): physicochemical
Data set [1] in a line: XRPD analysis of the tablet surface after the single-pH dissolution experiments. As for the experimental part: X-ray powder diffraction (XRPD) patterns of new cocrystals of AD were measured on a PANalytical (Malvern, UK) X’Pert PRO MPD (transmission configuration with Cu Kα radiation, λ = 1.54187 Å) with a focalizing elliptic mirror and a PIXcel detector and a maximum detector’s active length of 3.347°. Transmission geometry configuration included a convergent beam with a focalizing mirror, a flat sample sandwiched between low absorbing films measuring from 1 to 40° in 2θ, a step size of 0.026° and a measuring time of 8 to 30 min at room temperature (25 °C). Capillary geometry has been used with AD–Resorcinol (Form I) placed in a glass capillary (Lindemman) 0.5 mm in diameter measuring from 2 to 70° in 2θ, with a step size of 0.013° and a total measuring time of 18 h. The powder diffractograms were indexed and the lattice parameters were refined by means of Le Bail fits by means of Dicvol04 [35], and the space group was determined from the systematic absences.
The first set of studies was performed at different pH sectors (1.5, 4.0, 5.5 and 7.4) which are typically encountered in the gastrointestinal tract (GIT), and individual dissolution rates were determined at each pH sector. To perform these experiments, disks of 3mm diameter containing 6–10 mg of the drug or cocrystal were prepared by applying a constant pressure of 0.1 ton for 2 min with a manual hydraulic tablet press (Applied Measurements Specac Ltd, Orpington UK). The tablet was placed in a holder, and only one side of the tablet was exposed to the dissolution medium. The total exposed surface area was 0.07 cm^2. A total of 1.5 mL of 0.125 M acetate–phosphate buffer at pH 1.6 was introduced into the vial without wetting the tablet surface. The instrument then automatically added 13.5 mL of 0.15 M KCl solution and adjusted the pH to the required value (see Table S2 for exact experimental details). Spectra collection started immediately after. Spectra were recorded every 30 s for 30 min. The medium was stirred at a constant rate. The solid state of the remaining disks was analyzed using XRPD.
The XRPD analysis of the tablet surface after the dissolution experiments confirms that there is some transformation of the solid form. The highest transformation occurs for AD tablets, where 20% of the initial AD (Form I) is transformed into the dihydrate. This transformation is reproducible, as deduced by the low error bars in the dissolution profiles. In the case of cocrystals, they mainly remain in its original solid form; the 5–10% of the free AD (Form I) observed in the analysis of the tablets could be the result of AD deposition during the experiments since the saturation concentration is reached very quickly, rather than a solid phase transformation in the surface of the tablet.

Data set [2] is described as follows: Dissolution in a four-pH sector sequence (pH 1.5 to 7.4, 30 min at each pH, GLpKa). As for the experimental part:
A second set of experiments was performed with the same instrument. However, determinations were made in a full sequence of pHs (from 1.5 to 7.4) maintained for 30 min at each individual pH. To change the pH, KOH was added to the medium (Table S3).
Compared to the single-pH experiments, the four-pH sectors determination provides dynamic information of the dissolution behavior of the compounds along the GIT. Now, the dissolution test starts at pH 1.5, and dissolution is monitored for 30 min. Then, the pH is raised to 4.0, 5.5, and finally, 7.4, monitoring dissolution for 30 min at each pH.

Data set [3] in a line: Intrinsic dissolution at individual pH sectors (GLpKa, 3 mm disks, 30 min). Conditions: for solubility at 30 min: acetate–phosphate buffer with KCl; for Dissolution Rate: fit of Noyes–Whitney equation; for % Dissolved at t = 30 min: single-pH sector.
A short description of another data set: pKa determination.
Data set [4] is described as follows: Biphasic four-pH sector dissolution with 1-decanol lipid layer (Pion inForm). Conditions: for Transfer of AD towards the organic layer (1-decanol): pH 4.0 sector. As for the experimental part:
The third set of measurements were performed using a Pion inForm automated titrator system from Pion (Pion-Inc., Billerica, MA, USA, www.pion-inc.com) with an incorporated UV-Vis spectrophotometer to acquire the spectrophotometric data. The optical system also consisted of a photodiode array detector with a deuterium lamp and included two fiber optic dip probes. The titrator module included a temperature controller (a Peltier device with in-situ thermocouple), pH electrode, an overhead stirrer and motorized dispensers for the automatic delivery of assay titrants and reagents via capillaries. The instrumentation was operated by inForm Control and Assay Designer software (version 1.6.0.0). The Pion inForm system was used for the biphasic dissolution studies. Samples were prepared as described previously, and studies were performed consecutively through the four different pH sectors, with the addition of a lipid layer (1-decanol) in the second sector to mimic the absorption in the GIT. The dissolution media consisted of 40 mL of aqueous solution, which was added automatically to an 80 mL dissolution vessel and brought to 25 °C (±0.1 °C). Once the media were adjusted to the starting pH and temperature, each sample was added automatically, and data collection was started from the point of sample introduction. The lipid layer (30 mL) was added in the second pH sector after the pH was adjusted to 4.0 (see Table S4 for exact experimental details). The two UV optic fiber probes each with a 10mm path length, were used on the inForm platform for quantitating the drug in the aqueous phase and in the lipid layer. Stirring of the solution was continuous at a rate of 100 rpm through the four sectors. Spectral and pH data were collected with a frequency of 30 s over a period of 2 h.
Contrary to GLpKa, which has a fixed probe with a 10 mm path length that cannot be exchangeable with different path length size tips, Pion inForm is provided with two UV probes, both with a 10 mm path length: a fixed path-length and an exchangeable path-length. These probes were used for the aqueous and the lipid media, respectively. In this way, the UV data collected for the three cocrystals could be quantified using the MECs of orcinol, resorcinol and hydroquinone. Moreover, in the inForm system a greater volume of solution is used (40 mL instead of 15 mL of water used for the GLpKa). Therefore, the signal was not saturated, and the UV spectra for the coformers and the adefovir could be distinguished between them.
In order to study dissolution under conditions that mimic in vivo conditions more closely than other systems, the final set of experiments was carried out in a biphasic dissolution system. The test consists again in a four-pH sectors experiment, but in this case, 1-decanol was added in the second sector (pH 4.0) to simulate the contact with lipidic membranes. Then, the API concentration was monitored simultaneously in both phases through two different optic fiber probes.

Setting [5] is: pH 1.5, SD in parenthesis, n = 3.
Setting [6] is: pH 4.0, SD in parenthesis, n = 3.
Setting [7] is: pH 5.5, SD in parenthesis, n = 3.
Where [8] appears, read: pH 7.4, SD in parenthesis, n = 3.

For the compound `CC(C)(C)C(=O)OCOP(=O)(COCCn1cnc2c(N)ncnc21)OCOC(=O)C(C)(C)C` [AD, 9-{2-[Bis(pivaloyloxymethoxy)phosphinylmethoxy]ethyl}adenine], in data set [1] (XRPD of tablet surface), the “Share of the initial solid form transformed / other form found on tablet after dissolution” value stood at 20%. Moreover, the “Final Solid Form on tablet surface after dissolution” value (shortened to “Final Solid Form on tablet surface”) in data set [1] (pH 1.5), in data set [1] (pH 4.0), in data set [1] (pH 5.5) and in data set [1] (pH 7.4) was “Form I + AD–dihydrate (80%:20%)” throughout. Besides, the “% of API dissolved, four-pH sector test” value in data set [2] (pH 1.5 sector) came out at 30%. Moreover, the “% of AD in solution, four-pH sector test” value in data set [2] (pH 4.0 sector) is 25%; in data set [2] (pH 5.5 sector), 20%; in data set [2] (pH 7.4 sector) it was 20%. In addition, the solubility at 30 min in data set [3] (aqueous buffer, thermodynamic from solid, pH 1.5, SD in parenthesis, n = 3, read-out: AD Solubility) was 325 µM (≈ 163 µg/mL); in data set [3] (aqueous buffer, thermodynamic from solid, pH 4.0, SD in parenthesis, n = 3, read-out: AD Solubility, extrapolated (from Equation (1))), 139 µM (≈ 69.7 µg/mL); in data set [3] (aqueous buffer, thermodynamic from solid, pH 5.5, SD in parenthesis, n = 3, read-out: AD Solubility, extrapolated (from Equation (1))), 128 µM (≈ 64.2 µg/mL); in data set [3] (aqueous buffer, thermodynamic from solid, pH 7.4, SD in parenthesis, n = 3, read-out: AD Solubility, extrapolated (from Equation (1))) it was 123 µM (≈ 61.7 µg/mL); in data set [3] (pH 1.5, read-out: Solubility for AD indicated by the plateaus of the cocrystal profiles) it was approximately 300 µM (≈ 150 µg/mL). The “Dissolution Rate” value in data set [3] (setting [5]) was 315 (4) nmols/min; in data set [3] (setting [6]) it was 35 (4) nmols/min; in data set [3] (setting [7]), 21 (4) nmols/min; in data set [3] (setting [8]), 17 (2) nmols/min. The “% Dissolved at t = 30 min” value in data set [3] (setting [5]) is 29.0 (1.0) %; in data set [3] (setting [6]), 5.7% and 5.7 (0.4) %; in data set [3] (setting [7]), 3.8% and 3.8 (0.6) %; in data set [3] (setting [8]), 3.3% and 3.3 (0.4) %. Besides, the “Saturation concentration of AD” value in data set [3] (rest of pH values (4.0, 5.5, 7.4), particularly pH 5.5 and 7.4) is on record as “around 100 μM”. Further, the pKa in “pKa determination” came out at 3.78 ± 0.05. Further, in data set [4], the “Transfer of AD towards the organic layer (1-decanol)” value (“Transfer” below) is given as “even slower”.

Consider `CC(C)(C)C(=O)OCOP(=O)(COCCn1cnc2c(N)ncnc21)OCOC(=O)C(C)(C)C.Cc1cc(O)cc(O)c1` [AD–Orc cocrystal], for which the “Final Solid Form on tablet surface” value in data set [1] (pH 1.5), in data set [1] (pH 4.0), in data set [1] (pH 5.5) and in data set [1] (pH 7.4) was “Cocrystal + AD–dihydrate (90%:10%)” throughout. The “Dissolution Rate” value in data set [3] (setting [5]) is on record as 626 (40) nmols/min; in data set [3] (setting [6]), 147 (47) nmols/min; in data set [3] (setting [7]) it was 17 (1) nmols/min; in data set [3] (setting [8]), 17 (3) nmols/min. Besides, the “% Dissolved at t = 30 min” value in data set [3] (setting [5]) was 39.2 (1.1) %; in data set [3] (setting [6]) it was 14.7 (1.6) %; in data set [3] (setting [7]), 10.6 (2.5) %; in data set [3] (setting [8]) it was 13.1 (3.6) %. Also, the “Transfer” value in data set [4] is “rapid transfer of AD towards the organic layer”.

For the compound `CC(C)(C)C(=O)OCOP(=O)(COCCn1cnc2c(N)ncnc21)OCOC(=O)C(C)(C)C.Oc1cccc(O)c1` [AD–Res cocrystal (Form I)], the “Final Solid Form on tablet surface” value in data set [1] (pH 1.5), in data set [1] (pH 4.0), in data set [1] (pH 5.5) and in data set [1] (pH 7.4) was “Cocrystal (Form I) + AD–dihydrate (95%:5%)” in each case. The “Dissolution Rate” value in data set [3] (setting [5]) was 1015 (6) nmols/min; in data set [3] (setting [6]), 63 (2) nmols/min; in data set [3] (setting [7]), 19 (1) nmols/min; in data set [3] (setting [8]), 15 (1) nmols/min. Besides, the “% Dissolved at t = 30 min” value was 39.3 (1.3) % in data set [3] (setting [5]), 16.1 (2.0) % in data set [3] (setting [6]), 12.2 (2.0) % in data set [3] (setting [7]) and 10.9 (2.7) % in data set [3] (setting [8]). In data set [4], the “Transfer” value is “rapid transfer of AD towards the organic layer”.

In the case of `CC(C)(C)C(=O)OCOP(=O)(COCCn1cnc2c(N)ncnc21)OCOC(=O)C(C)(C)C.Oc1ccc(O)cc1` [AD–hydroquinone cocrystal], in data set [4] (pH 1.5, aqueous phase), the “Slope of dissolution profile in the first pH sector” value was “inferior slope compared to the cocrystals with resorcinol and orcinol”. Moreover, the “Transfer” value in data set [4] was “slightly slower”.
